“And” between values parts separate entries of the source, which are not always exact repeats. Identical values can stand only once. Like-named read-outs stand apart in the source and are kept apart here.
Assays:
5HT2b receptor = 5HT2b receptor (Homo sapiens (Human), UniProt P41595); test: Secondary radioligand binding assay, 5HT2b; set-up: key to Ki 5HT2b: “—” indicates that a binding interaction was not detected; conditions: average of at least two experiments;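 also: competition binding against a radioligand on membranes from transfected cell lines, 1.5 h incubation at room temperature, filter-retained radioactivity counted by liquid scintillation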
dopamine D3 receptor = dopamine D3 receptor (Homo sapiens (Human), UniProt P35462); test: Secondary radioligand binding assay, D3; set-up: key to Ki D3: “—” indicates that a binding interaction was not detected; conditions: average of at least two experiments
Procedure: (§1) 1. Secondary Radioligand Binding Assays
(§2) The detailed experimental protocols for the radioligand and functional receptor assays are available on the NIMH PDSP website at http://pdsp.med.unc.edu/UNC-CH %20Protocol %20Book.pdf.
(§3) Radioligand is diluted to five times the assay concentration (see Table 18) in Standard Binding Buffer. Typically, the assay concentration of radioligand is a value between one half the KD and the KD of a particular radioligand at its target. 50 μl aliquots of radioligand are dispensed into the wells of a 96-well plate containing 100 μl of Standard Binding Buffer. Then, duplicate 50 μl aliquots of the test and reference compound dilutions are added.
(§4) The 250 μl reactions are incubated at room temperature and shielded from light (to prevent photolysis of light-sensitive ligands) for 1.5 hours, then harvested by rapid filtration onto Whatman GF/B glass fiber filters pre-soaked with 0.3% polyethyleneimine using a 96-well Brandel harverster. Four rapid 500 μl washes are performed with chilled Standard Binding Buffer to reduce non-specific binding. Filters are placed in 6 ml scintillation tubes and allowed to dry overnight. The next day, 4 ml of EcoScint scintillation cocktail (National Diagnostics) are added to each tube. The tubes are capped, labeled, and counted by liquid scintillation counting. […] The filter mats are dried, then scintillant is melted onto the filters and the radioactivity retained on the filters is counted in a Microbeta scintillation counter.
(§5) Raw data (dpm) representing total radioligand binding (i.e. specific+non-specific binding) are plotted as a function of the logarithm of the molar concentration of the competitor (i.e. test or reference compound).
(§6) B. Dopamine Receptors: D1, D2, D3, D4, D5 Assay Buffers: Dopamine Binding Buffer (50 mM NaCl, 50 mM HEPES-HCl, 5 mM MgCl2, 0.5 mM EDTA, pH 7.4) Membrane Fraction Source: Transiently or stably transfected cell lines (e.g. HEK293, COS, CHO, NIH3T3)
(§7) The method is carried out in the manner described for the serotonin receptor assay above. Eleven dilutions (5× assay concentration) of the test and reference (see Table 19) compounds are prepared in Dopamine Binding Buffer by serial dilution, as previously described. Radioligand is diluted to five times the assay concentration (see Table 20) in Dopamine Binding Buffer.

[1] = molecular target: Alpha1A adrenergic receptor (Homo sapiens (Human), UniProt P35348); test: Secondary radioligand binding assay, Alpha1A; set-up: key to Ki Alpha1A: “—” indicates that a binding interaction was not detected; conditions: average of at least two experiments
From the text: 1. Secondary Radioligand Binding Assays The detailed experimental protocols for the radioligand and functional receptor assays are available on the NIMH PDSP website at http://pdsp.med.unc.edu/UNC-CH %20Protocol %20Book.pdf. Raw data (dpm) representing total radioligand binding (i.e. specific+non-specific binding) are plotted as a function of the logarithm of the molar concentration of the competitor (i.e. test or reference compound). […] C. Adrenergic Receptors: α1A, α1B, α2A, α2B, α2C, β1, β2, β3 Assay Buffers: For α1 receptors, α1 Binding Buffer (20 mM Tris-HCl, 145 mM NaCl, pH 7.4); for α2 receptors, α2 Binding Buffer (50 mM Tris-HCl, 5 mM MgCl2, pH 7.7); for β receptors, β Binding Buffer (50 mM Tris-HCl, 3 mM MnCl2, pH 7.7) Membrane Fraction Source: Transiently or stably transfected cell lines (e.g. HEK293, COS, CHO, NIH3T3) Protocol adapted from Arango et al. […] (1990), Gen. Psychiatry, 47: 1038-1047. The method is carried out in the manner described for the serotonin receptor assay above, except where described below. Eleven dilutions (5× assay concentration) of the test and reference (see Table 20) compounds are prepared in the appropriate buffer by serial dilution, as previously described. Radioligand is diluted to five times the assay concentration (see Table 21) in the appropriate buffer. […] Four rapid 500-μl washes are performed with chilled distilled water (for α1 and β receptors) or 0.1% polyethyleneimine (for α2 receptors) to reduce non-specific binding. Filters are placed in 6 ml scintillation tubes and allowed to dry overnight and the samples are treated to obtain data as described above. [table]

5HT1a receptor = 5HT1a receptor (Homo sapiens (Human), UniProt P08908); test: Secondary radioligand binding assay, 5HT1a; conditions: average of at least two experiments
dopamine D4 receptor = dopamine D4 receptor (Homo sapiens (Human), UniProt P21917); test: Secondary radioligand binding assay, D4
Procedure: as §1, §2, §3, §4, §5, §6, §7

5HT2a receptor = 5HT2a receptor (Homo sapiens (Human), UniProt P28223); test: Secondary radioligand binding assay, 5HT2a; conditions: average of at least two experiments
[2] = receptor binding, average of at least two experiments, read-out: Ki D4
[3] = read-out: Ki dopamine D4 (relatively high affinity)

Chain of 5HT2a receptor (P28223 whole entry): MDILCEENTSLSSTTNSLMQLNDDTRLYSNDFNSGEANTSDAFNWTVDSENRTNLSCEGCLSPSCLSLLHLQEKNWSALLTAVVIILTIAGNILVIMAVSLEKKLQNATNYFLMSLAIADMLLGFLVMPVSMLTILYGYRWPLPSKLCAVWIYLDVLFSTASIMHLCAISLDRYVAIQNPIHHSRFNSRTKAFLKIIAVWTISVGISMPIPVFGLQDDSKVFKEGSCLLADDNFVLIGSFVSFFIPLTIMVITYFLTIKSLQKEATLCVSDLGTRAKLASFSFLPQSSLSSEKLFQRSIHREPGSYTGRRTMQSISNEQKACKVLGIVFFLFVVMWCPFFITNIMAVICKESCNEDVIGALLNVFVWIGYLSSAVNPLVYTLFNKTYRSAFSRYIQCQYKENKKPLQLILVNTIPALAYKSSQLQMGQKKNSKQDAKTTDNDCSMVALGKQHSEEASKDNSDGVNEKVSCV
Chain of Alpha1A adrenergic receptor (P35348 whole entry): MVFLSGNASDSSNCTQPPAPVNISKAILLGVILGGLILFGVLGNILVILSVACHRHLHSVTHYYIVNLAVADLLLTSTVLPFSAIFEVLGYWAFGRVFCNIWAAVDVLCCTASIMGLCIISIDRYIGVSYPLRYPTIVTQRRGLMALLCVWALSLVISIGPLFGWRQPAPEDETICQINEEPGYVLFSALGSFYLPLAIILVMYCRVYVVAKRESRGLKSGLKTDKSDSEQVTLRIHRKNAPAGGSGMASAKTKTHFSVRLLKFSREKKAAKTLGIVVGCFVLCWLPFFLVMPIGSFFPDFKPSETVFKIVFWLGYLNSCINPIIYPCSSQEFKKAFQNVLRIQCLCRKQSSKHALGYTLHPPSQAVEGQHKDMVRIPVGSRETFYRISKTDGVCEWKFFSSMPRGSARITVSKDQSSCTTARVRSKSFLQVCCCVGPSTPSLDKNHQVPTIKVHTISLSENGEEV
Chain of 5HT2b receptor (P41595 whole entry): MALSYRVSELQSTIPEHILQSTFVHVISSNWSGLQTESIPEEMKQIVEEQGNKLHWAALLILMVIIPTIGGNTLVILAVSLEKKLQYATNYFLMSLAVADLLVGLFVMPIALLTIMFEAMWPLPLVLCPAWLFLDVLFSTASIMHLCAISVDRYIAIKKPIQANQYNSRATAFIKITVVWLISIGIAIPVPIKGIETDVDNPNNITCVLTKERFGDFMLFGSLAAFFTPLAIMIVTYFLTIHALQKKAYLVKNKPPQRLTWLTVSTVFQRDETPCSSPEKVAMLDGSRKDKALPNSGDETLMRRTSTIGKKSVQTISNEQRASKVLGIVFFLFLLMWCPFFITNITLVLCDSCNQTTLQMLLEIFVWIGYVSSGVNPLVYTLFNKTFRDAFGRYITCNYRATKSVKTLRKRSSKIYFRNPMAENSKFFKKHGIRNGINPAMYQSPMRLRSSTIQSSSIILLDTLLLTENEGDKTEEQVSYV
Chain of 5HT1a receptor (P08908 whole entry): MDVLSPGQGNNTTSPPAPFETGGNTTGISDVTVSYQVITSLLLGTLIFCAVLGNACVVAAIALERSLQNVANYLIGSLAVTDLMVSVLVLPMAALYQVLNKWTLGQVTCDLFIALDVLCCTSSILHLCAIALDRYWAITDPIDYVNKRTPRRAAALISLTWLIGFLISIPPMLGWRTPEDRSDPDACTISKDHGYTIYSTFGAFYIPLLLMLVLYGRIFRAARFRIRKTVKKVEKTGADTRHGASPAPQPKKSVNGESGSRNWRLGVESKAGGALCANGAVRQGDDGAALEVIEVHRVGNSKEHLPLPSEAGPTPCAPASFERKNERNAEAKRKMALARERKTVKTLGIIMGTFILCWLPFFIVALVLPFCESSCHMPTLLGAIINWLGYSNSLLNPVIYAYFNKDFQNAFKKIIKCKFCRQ
Chain of dopamine D4 receptor (P21917 whole entry, species assumed): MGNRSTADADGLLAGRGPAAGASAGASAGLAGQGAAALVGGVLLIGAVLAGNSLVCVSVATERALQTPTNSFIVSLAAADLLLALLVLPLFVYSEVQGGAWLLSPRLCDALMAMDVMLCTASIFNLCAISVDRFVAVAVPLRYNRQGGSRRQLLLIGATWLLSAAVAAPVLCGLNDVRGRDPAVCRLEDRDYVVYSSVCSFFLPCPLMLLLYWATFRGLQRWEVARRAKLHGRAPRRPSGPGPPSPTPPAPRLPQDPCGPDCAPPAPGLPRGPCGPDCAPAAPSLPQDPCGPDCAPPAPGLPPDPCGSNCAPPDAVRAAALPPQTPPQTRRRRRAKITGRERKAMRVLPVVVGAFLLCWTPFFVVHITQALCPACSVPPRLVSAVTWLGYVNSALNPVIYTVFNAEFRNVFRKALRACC
Chain of dopamine D3 receptor (P35462 whole entry, species assumed): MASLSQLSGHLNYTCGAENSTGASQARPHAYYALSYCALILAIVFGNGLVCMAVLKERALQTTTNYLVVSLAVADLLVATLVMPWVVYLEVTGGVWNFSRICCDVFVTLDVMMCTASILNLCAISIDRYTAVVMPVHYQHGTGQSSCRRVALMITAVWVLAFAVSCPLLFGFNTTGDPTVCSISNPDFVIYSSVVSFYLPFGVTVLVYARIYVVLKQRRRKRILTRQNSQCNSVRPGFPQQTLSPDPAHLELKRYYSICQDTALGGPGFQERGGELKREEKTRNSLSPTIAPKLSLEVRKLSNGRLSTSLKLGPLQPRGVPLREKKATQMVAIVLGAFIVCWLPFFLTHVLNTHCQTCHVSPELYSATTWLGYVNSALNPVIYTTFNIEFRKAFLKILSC

| Structure (SMILES) | Ki D3 (dopamine D3 receptor) | Ki Alpha1A [1] | Ki (5HT1a receptor) [nM] | Ki (5HT2b receptor) [nM] | Ki (dopamine D3 receptor) [nM] | Ki 5HT2b (5HT2b receptor) | Ki (dopamine D4 receptor; [2]) | Ki (5HT2a receptor) [nM] | Ki (dopamine D4 receptor; [3]) [nM] |
| --- | --- | --- | --- | --- | --- | --- | --- | --- | --- |
| O=C(CN1CCO[C@@H](COc2ccccn2)C1)N1CCc2ccccc21 [Compound 14r, (R)-1-(Indolin-1-yl)-2-(2-((pyridin-2-yloxy)methyl)morpholino)ethanone] | — | — |  |  |  | — |  |  |  |
| O=C(CN1CCO[C@H](COc2ccccc2)C1)N1CCc2ccccc21 [Compound 18s, (S)-1-(Indolin-1-yl)-2-(2-(phenoxymethyl)morpholino)ethanone] | — | — |  | 6420 |  |  | 5530 nM |  |  |
| O=C(CN1CCO[C@@H](COc2cccnc2)C1)N1CCc2ccccc21 [Compound 20r, (R)-1-(Indolin-1-yl)-2-(2-((pyridin-3-yloxy)methyl)morpholino)ethanone] | — | — |  | 8810 |  |  |  | 2660 |  |
| O=C(CN1CCO[C@H](COc2cccnc2)C1)N1CCc2ccccc21 [Compound 20s, (S)-1-(Indolin-1-yl)-2-(2-((pyridin-3-yloxy)methyl)morpholino)ethanone] | — | — |  | 7640 |  |  |  |  |  |
| c1cncc(OC[C@H]2CN(CCN3CCc4ccccc43)CCO2)c1 [Compound 21r, (R)-4-(2-(Indolin-1-yl)ethyl)-2-((pyridin-3-yloxy)methyl)morpholine] | — | — |  |  |  | — | 2410 nM | 3580 |  |
| Clc1cccc(OC[C@H]2CN(CCN3CCc4ccccc43)CCO2)c1 [Compound 23r, (R)-2-((3-Chlorophenoxy)methyl)-4-(2-(indolin-1-yl)ethyl)morpholine] | — | — |  |  |  |  |  | 2670 |  |
| Cc1ncccc1OC[C@@H]1CN(CCN2CCc3ccccc32)CCO1 [Compound 26s, (S)-4-(2-(Indolin-1-yl)ethyl)-2-(((2-methylpyridin-3-yl)oxy)methyl)morpholine] | — | — |  |  |  | — | < 1000 nM and 435 nM |  | < 1000 |
| Clc1cncc(OC[C@H]2CN(CCN3CCc4ccccc43)CCO2)c1 [Compound 27r, (R)-2-(((5-Chloropyridin-3-yl)oxy)methyl)-4-(2-(indolin-1-yl)ethyl)morpholine] | — | — |  | 2560 |  |  |  |  |  |
| Cc1ccc(OC[C@H]2CN(CCN3CCc4ccccc43)CCO2)cn1 [Compound 28r, (R)-4-(2-(Indolin-1-yl)ethyl)-2-(((6-methylpyridin-3-yl)oxy)methyl)morpholine] | — | — |  |  |  | — |  | 1480 |  |
| Cc1ccc(OC[C@@H]2CN(CCN3CCc4ccccc43)CCO2)cn1 [Compound 28s, (S)-4-(2-(Indolin-1-yl)ethyl)-2-(((6-methylpyridin-3-yl)oxy)methyl)morpholine] | — | — |  |  |  | — | < 1000 nM |  | < 1000 |
| Cc1ccnc(C)c1OC[C@H]1CN(CCN2CCc3ccccc32)CCO1 [Compound 29r, (R)-2-(((2,4-Dimethylpyridin-3-yl)oxy)methyl)-4-(2-(indolin-1-yl)ethyl)morpholine] | — | — |  | 1330 |  |  | 4950 nM | > 10000 |  |
| C[C@@H]1Cc2ccccc2N1C(=O)CN1CCO[C@@H](COc2ccncc2)C1 [Compound 67] | — | — | > 10000 |  |  | — |  |  |  |

More lines, main results first:

| Ki D3 (dopamine D3 receptor) | Ki Alpha1A [1] | Ki (5HT1a receptor) [nM] | Ki (5HT2b receptor) [nM] | Ki (dopamine D3 receptor) [nM] | Structure (SMILES) | Ki 5HT2b (5HT2b receptor) | Ki (dopamine D4 receptor; [2]) | Ki (5HT2a receptor) [nM] | Ki (dopamine D4 receptor; [3]) [nM] |
| --- | --- | --- | --- | --- | --- | --- | --- | --- | --- |
|  | — | 2880 | 600 | > 10000 | c1ccc(OC[C@H]2CN(CCN3CCc4ccccc43)CCO2)nc1 [Compound 15r, (R)-4-(2-(Indolin-1-yl)ethyl)-2-((pyridin-2-yloxy)methyl)morpholine] |  | 814 nM |  |  |
| — | — |  |  |  | Cc1ccnc(OC[C@H]2CN(CC(=O)N3CCc4ccccc43)CCO2)c1 [Compound 16r] | — |  |  |  |
| — | — |  | 788 |  | Cc1ccnc(OC[C@H]2CN(CCN3CCc4ccccc43)CCO2)c1 [Compound 17r, (R)-4-(2-(Indolin-1-yl)ethyl)-2-(((4-methylpyridin-2-yl)oxy)methyl)morpholine] |  | 1930 nM |  |  |
|  | — |  | 3170 | > 10000 | Cc1ncccc1OC[C@H]1CN(CCN2CCc3ccccc32)CCO1 [Compound 26r, (R)-4-(2-(Indolin-1-yl)ethyl)-2-(((2-methylpyridin-3-yl)oxy)methyl)morpholine] |  |  |  |  |
| — | — | 592 | 4610 |  | Cc1ncccc1OC[C@@H]1CN(CC(=O)N2c3ccccc3CC2C)CCO1.Cl (some centres unmarked) [Compound 60] |  |  |  |  |
| — | — | 6590 | 5180 |  | Cc1ncccc1OC[C@H]1CN(CC(=O)N2c3ccccc3CC2C)CCO1 (some centres unmarked) [Compound 62] |  |  |  |  |
| — | — | 5020 |  |  | Cc1ncccc1OC[C@H]1CN(CC(=O)N2c3ccccc3C[C@H]2C)CCO1 [Compound 63] | — |  |  |  |
| — | — | > 10000 |  |  | CC1Cc2ccccc2N1C(=O)CN1CCO[C@@H](COc2ccncc2)C1 (some centres unmarked) [Compound 68] | — |  |  |  |
| — | — | > 10000 |  |  | CC1Cc2ccccc2N1C(=O)CN1CCO[C@@H](COc2ccccn2)C1 (some centres unmarked) [Compound 69] | — |  |  |  |

Reference: patent US9079895B2, “Morpholino compounds, uses and methods” (University of Dundee, priority 2012, dated 2015)
